In brackets after ≈: the same amount, converted by molar mass. Like-named read-outs stand apart in the source and are kept apart here. Where a SMILES comes first, the peptide text is derived from it. [ ]: non-standard residue; d: D form. Gly(N(CH2)2(3-indolyl)) = O=C(O)CNCCc1c[nH]c2ccccc12; Nspe = C[C@H](NCC(=O)O)c1ccccc1; Nlys = NCCCCNCC(=O)O
How the values were obtained:
E. coli ATCC25922 = tested on: E. coli ATCC25922
Summary of the method: (§1)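 Cation-adjusted MHB2 cultures (18 h, subcultured 4 h) adjusted to 2×10^5–5×10^5 CFU/mL in medium with 0.02% BSA and 0.001% acetic acid.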

S. aureus ATCC 25923 = tested on: S. aureus ATCC 25923
Summary of the method: as §1

red blood cells = assay: Hemolysis assay; type: cell-based, Sprague-Dawley mouse
Summary of the method: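 Peptoid is mixed with 10% (v/v) PBS-washed erythrocytes (male Sprague-Dawley […], 13 weeks) and held 1 h at 37 °C. Hemolysis is calculated from 540 nm absorbance of the supernatant, with PBS as 0% and Triton X-100 as 100%.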

Human lung cells (MRC-5) = assay: in vitro; settings: for CC50: read-out: LC50 MRC-5, 24 hours incubation, concentration that causes 50% cell lethality
Method: (§2) Human lung cells (MRC-5) were purchased from the Korean Cell Line Bank, and human keratinocytes (HaCaT) were purchased from the AmorePacific R&D Center. All cells were grown in a Dulbecco's modified Eagle's medium containing 10% fetal bovine serum under conditions of 5% CO2 and 37° C. To confirm the effect of a peptoid on cell growth, 3-(4,5-dimethylthiazol-2-yl)-5-(3-carboxymethoxyphenyl)-2-(4-sulfophenyl)-2H-tetrazolium (MTS) cell assay was performed to determine cell viability. An aliquot (100 μL) of a batch including 1.3×10^4 MRC-5 cells/mL or 3×10^4 HaCaT cells/mL was dispensed into each well of a 96-well plate. The cells were grown at 37° C. in a 5% CO2 humid atmosphere and allowed to adhere for 24 hours. When the cells reached approximately 70% confluency, the medium was replaced with serial dilutions of the peptoid stock and incubated for 24 hours. 20 μL of a CellTiter 96 aqueous non-radioactive cell proliferation assay reagent (Promega, USA) including a tetrazolium compound was added to each well.
(§3) The contents in the plate were metabolized by incubating at 37° C. for 4 hours. An MTS-formazan product of viable cells was measured at 490 nm using a microplate reader, and cell viability (%) was calculated by Equation 2 below and compared with untreated cells.
(§4) Cell viability (%)=[A/(Acontrol)]×100 [Equation 2]
(§5) In Equation 2, A is the absorbance of a test well, and Acontrol is the average absorbance of a well containing untreated cells.
(§6) The term “nd” shown in Table 19 below is the abbreviation for not determined, and indicates a value that is too small or too large to be measured.

E. coli KCTC 2411 = assay: MIC in multidrug-resistant bacteria, modified microdilution method; type: cell-based; settings: Table 14
Method: (§7) The MIC of the prepared peptoid in multidrug-resistant bacteria was measured using a modified microdilution method in a Difco Mueller Hinton medium, and a test was performed on a bacterial pathogen panel with resistant and tolerance to general antibiotics.
(§8) Briefly, a medium containing bovine serum albumin and 0.001% acetic acid was used to continuously dilute a peptoid concentrate 10-times stronger than the final concentration. 10 uμL of the 10-time stronger peptoid concentrate and 90 μL of a Muleller Hinton medium were added to each well of a 96-well plate. Bacteria were added to the plate until the final concentration reached 2×10^5 CFU/mL and then incubated at […] overnight. MIC was defined as a concentration at which bacterial growth is not observed.

[1] = tested on: Enterobacter SP KCTC 2625; assay: as above; type: cell-based; settings: Table 14
Method: as §7, §8

[2] = tested on: Enterococcus Faecium KCTC 13225; assay: as above; type: cell-based; settings: Table 14
Method: as §7, §8

[3] = tested on: Enterococcus faecalis KCTC 3511; assay: as above; type: cell-based; settings: Table 14
Method: as §7, §8

in vitro = settings: human, LC50 MRC-5
Method: as §2, §3, §4, §5, §6

[4] = HPLC to confirm peptoid decomposition after counter ion substitution; type: physicochemical; settings: HPLC at 220 nm; HCl and AcOH
Method: FIGS. 76 to 83 are the HPLC results for Peptoids 1, 10, 11, 14, 15, 29, 32 and 37 of the present inventive concept to confirm the decomposition of the peptoids after counter ion substitution using (a) HCl and (b) AcOH.
Referring to FIGS. […], HPLC was performed for Peptoids 1, 10, 11, 14, 15, 29, 32 and 37 of the present inventive concept. Since the chloride (HCl) is a stronger acid than TFA, it can decompose acid-vulnerable peptoid compounds.

[5] = tested on: human keratinocytes (HaCaT); assay: in vitro
Method: as §2, §3, §4, §5, §6

[6] = Table 18, TFA salt vs counter ion-substituted (HCl, AcOH) peptoids
[7] = Table 18, TFA salt vs counter ion-substituted peptoids
[8] = Tables 11-13, 24 hours at 37° C., maximum concentration 25 μM

| Compound | MIC E. coli ATCC25922 (E. coli ATCC25922; [6]) [µM] | MIC S. aureus ATCC 25923 (S. aureus ATCC 25923; [6]) [µM] | HC10 (red blood cells; [7]) [µM] | HC50 (red blood cells; [7]) [µM] | Hmax (100 μM) (red blood cells; [7]) [%] | CC50 (Human lung cells (MRC-5)) [µM] | MIC E. coli ATCC25922 (E. coli ATCC25922; [8]) [µM] | MIC S. aureus ATCC 25923 (S. aureus ATCC 25923; [8]) [µM] | MIC E. coli KCTC 2411 (E. coli KCTC 2411) [µM] | MIC Enterobacter SP KCTC 2625 [1] [µM] | MIC Enterococcus Faecium KCTC 13225 [2] [µM] | MIC Enterococcus faecalis KCTC 3511 [3] [µM] | CC50 at 24 h (in vitro) [µM] | peptoid decomposition after counter ion substitution (in words) [4] | HC10 (red blood cells) | HC50 (red blood cells) | Hmax (100 μM) (red blood cells) [%] | LC50 / animal cell toxicity, MRC-5 (in words) (Human lung cells (MRC-5)) | LC50 / animal cell toxicity, HaCaT (in words) [5] |
| --- | --- | --- | --- | --- | --- | --- | --- | --- | --- | --- | --- | --- | --- | --- | --- | --- | --- | --- | --- |
| C[C@@H](c1ccccc1)N(CC(N)=O)C(=O)CN(C(=O)CN(CCCCN)C(=O)CN(C(=O)CN(C(=O)CN(CCCCN)C(=O)CN(C(=O)CN(C(=O)CN(CCCCN)C(=O)CN(C(=O)CN(C(=O)CNCCCCN)[C@@H](C)c1ccccc1)[C@@H](C)c1ccccc1)[C@@H](C)c1ccccc1)[C@@H](C)c1ccccc1)[C@@H](C)c1ccccc1)[C@@H](C)c1ccccc1)[C@@H](C)c1ccccc1 [Peptoid 1-1, reference compound] (H-[Nlys][Nspe][Nspe][Nlys][Nspe][Nspe][Nlys][Nspe][Nspe][Nlys][Nspe][Nspe]-NH2) | 6.3 | 1.6 | 27.6 | 83.3 | 61.5 ± 0.9 | 11.8 | – | – | – | – | – | – | – | – | – | – | – | – | – |
| C[C@@H](c1ccccc1)N(CC(N)=O)C(=O)CN(C(=O)CN(CCCCN)C(=O)CN(C(=O)CN(C(=O)CN(CCCCN)C(=O)CN(C(=O)CN(C(=O)CN(CCCCN)C(=O)CN(C(=O)CN(C(=O)CNCCCCN)[C@@H](C)c1ccccc1)[C@@H](C)c1ccccc1)[C@@H](C)c1ccccc1)[C@@H](C)c1ccccc1)[C@@H](C)c1ccccc1)[C@@H](C)c1ccccc1)[C@@H](C)c1ccccc1 [Peptoid 1-2, reference compound] (H-[Nlys][Nspe][Nspe][Nlys][Nspe][Nspe][Nlys][Nspe][Nspe][Nlys][Nspe][Nspe]-NH2) | 12.5 | 3.1 | 25.0 | 78.6 | 58.2 ± 1.7 | 8.6 | – | – | – | – | – | – | – | – | – | – | – | – | – |
| C[C@@H](c1ccccc1)N(CC(=O)N(CCCCN)CC(=O)N(CC(=O)N(CC(=O)N(CCCCN)CC(=O)N(CC(=O)N(CC(=O)N(CCCCN)CC(=O)N(CCc1c[nH]c2ccccc12)CC(=O)N(CCc1c[nH]c2ccccc12)CC(N)=O)[C@@H](C)c1ccccc1)[C@@H](C)c1ccccc1)[C@@H](C)c1ccccc1)[C@@H](C)c1ccccc1)C(=O)CN(C(=O)CNCCCCN)[C@@H](C)c1ccccc1 [Peptoid 11, H-NLys-Nspe-Nspe-NLys-Nspe-Nspe-NLys-Nspe-Nspe-NLys-NhTrp-NhTrp-NH2] (H-[Nlys][Nspe][Nspe][Nlys][Nspe][Nspe][Nlys][Nspe][Nspe][Nlys][Gly(N(CH2)2(3-indolyl))][Gly(N(CH2)2(3-indolyl))]-NH2) | 3.1 | 1.6 | – | – | – | – | 6.3 (≈ 12 µg/mL) | 1.6 (≈ 3.04 µg/mL) | 12.5 (≈ 23.7 µg/mL) | 6.3 (≈ 12 µg/mL) | < 0.8 | < 0.8 | 6.9 | almost no peptoid decomposition occurred | – | – | – | – | – |
| C[C@@H](c1ccccc1)N(CC(=O)N(CCCCN)CC(=O)N(CCc1c[nH]c2ccccc12)CC(=O)N(CCc1c[nH]c2ccccc12)CC(N)=O)C(=O)CN(CCCCN)C(=O)CN(CCCCN)C(=O)CN(C(=O)CN(C(=O)CN(CCCCN)C(=O)CN(C(=O)CN(C(=O)CNCCCCN)[C@@H](C)c1ccccc1)[C@@H](C)c1ccccc1)[C@@H](C)c1ccccc1)[C@@H](C)c1ccccc1 [Peptoid 29-1] (H-[Nlys][Nspe][Nspe][Nlys][Nspe][Nspe][Nlys][Nlys][Nspe][Nlys][Gly(N(CH2)2(3-indolyl))][Gly(N(CH2)2(3-indolyl))]-NH2) | 12.5 | 12.5 | – | – | – | – | – | – | – | – | – | – | – | – | >100/>100 μM | >100/>100 μM | 4.3 ± 0.3 | LC50 values of the peptoids increase | LC50 values of the peptoids increase |
| C[C@@H](c1ccccc1)N(CC(=O)N(CCCCN)CC(=O)N(CCc1c[nH]c2ccccc12)CC(=O)N(CCc1c[nH]c2ccccc12)CC(N)=O)C(=O)CN(CCCCN)C(=O)CN(CCCCN)C(=O)CN(C(=O)CN(C(=O)CN(CCCCN)C(=O)CN(C(=O)CN(C(=O)CNCCCCN)[C@@H](C)c1ccccc1)[C@@H](C)c1ccccc1)[C@@H](C)c1ccccc1)[C@@H](C)c1ccccc1 [Peptoid 29-2] (H-[Nlys][Nspe][Nspe][Nlys][Nspe][Nspe][Nlys][Nlys][Nspe][Nlys][Gly(N(CH2)2(3-indolyl))][Gly(N(CH2)2(3-indolyl))]-NH2) | 6.3 | 12.5 | – | – | – | – | – | – | – | – | – | – | – | – | >100/>100 μM | >100/>100 μM | 5.2 ± 0.2 | LC50 values of the peptoids increase | LC50 values of the peptoids increase |
| C[C@@H](c1ccccc1)N(CC(N)=O)C(=O)CN(CCCCN)C(=O)CN(CCCCN)C(=O)CN(C(=O)CN(C(=O)CN(CCCCN)C(=O)CN(C(=O)CN(C(=O)CN(CCCCN)C(=O)CN(CCc1c[nH]c2ccccc12)C(=O)CN(CCc1c[nH]c2ccccc12)C(=O)CNCCCCN)[C@@H](C)c1ccccc1)[C@@H](C)c1ccccc1)[C@@H](C)c1ccccc1)[C@@H](C)c1ccccc1 [Peptoid 32-1] | 6.3 | 6.3 | – | – | – | – | – | – | – | – | – | – | – | – | >100/>100 μM | >100/>100 μM | 8.7 ± 0.6 | – | LC50 values of the peptoids increase |
| C[C@@H](c1ccccc1)N(CC(N)=O)C(=O)CN(CCCCN)C(=O)CN(CCCCN)C(=O)CN(C(=O)CN(C(=O)CN(CCCCN)C(=O)CN(C(=O)CN(C(=O)CN(CCCCN)C(=O)CN(CCc1c[nH]c2ccccc12)C(=O)CN(CCc1c[nH]c2ccccc12)C(=O)CNCCCCN)[C@@H](C)c1ccccc1)[C@@H](C)c1ccccc1)[C@@H](C)c1ccccc1)[C@@H](C)c1ccccc1 [Peptoid 32-2] | 6.3 | 6.3 | – | – | – | – | – | – | – | – | – | – | – | – | 83.0 µM | > 100 µM | 13.8 ± 1.1 | LC50 values of the peptoids increase | LC50 values of the peptoids increase |
